Experimental data as given in ChEMBL document CHEMBL4477240, “Electron affinity of tricyclic, bicyclic, and monocyclic compounds containing cyanoenones correlates with their potency as inducers of a cytoprotective enzyme” (Bioorg Med Chem Lett, 2016).

Target: T1, Nuclear factor erythroid 2-related factor 2 (Mus musculus) (UniProt Q60795)
T1 sequence (whole entry): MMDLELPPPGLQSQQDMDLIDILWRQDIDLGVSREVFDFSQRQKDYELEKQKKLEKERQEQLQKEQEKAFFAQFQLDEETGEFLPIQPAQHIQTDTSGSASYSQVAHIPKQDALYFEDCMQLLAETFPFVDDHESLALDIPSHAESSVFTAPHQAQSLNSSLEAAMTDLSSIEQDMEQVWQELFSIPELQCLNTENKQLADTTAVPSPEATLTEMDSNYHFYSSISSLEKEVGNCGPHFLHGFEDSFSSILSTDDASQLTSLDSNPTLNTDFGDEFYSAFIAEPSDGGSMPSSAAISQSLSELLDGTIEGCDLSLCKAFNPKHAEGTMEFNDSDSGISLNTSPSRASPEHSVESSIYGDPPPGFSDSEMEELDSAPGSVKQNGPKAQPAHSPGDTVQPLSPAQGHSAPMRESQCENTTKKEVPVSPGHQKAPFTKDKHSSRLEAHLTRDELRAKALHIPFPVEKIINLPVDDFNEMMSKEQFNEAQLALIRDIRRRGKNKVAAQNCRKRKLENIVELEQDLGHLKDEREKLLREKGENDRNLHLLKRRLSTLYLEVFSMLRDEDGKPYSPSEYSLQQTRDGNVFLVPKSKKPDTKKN
Experiment: Activation of Nrf2 in mouse Hepa-1c1c7 cells assessed as concentration required to double specific activity of NQO1 incubated for 48 hrs
Type: cell-based

| SMILES | pCD |
| --- | --- |
| CC#CC1(C)C=CC(=O)C(C#N)=C1 (configuration not stated) | 7.48 |
| C=C[C@]12C=C(C#N)C(=O)C=C1[C@@]1(C)C=C(C#N)C(=O)C(C)(C)[C@@H]1CC2 | 7.52 |
| C#CC1(CC)C=CC(=O)C(C#N)=C1 (configuration not stated) | 7.38 |
| C#CC12C=C(C#N)C(=O)C=C1CCC2 (configuration not stated) | 7.25 |
| C#CC1(C)C=C(C#N)C(=O)CC1 (configuration not stated) | 7 |
| C#CC1(C=C)C=CC(=O)C(C#N)=C1 (configuration not stated) | 7.7 |
| C#C[C@]12C=C(C#N)C(=O)C=C1[C@@]1(C)C=C(C#N)C(=O)C(C)(C)[C@@H]1CC2 | 9.04 |
| CC1(C)C=CC(=O)C(C#N)=C1 | 6.82 |
| C#CC1(C)C=CC(=O)C(C#N)=C1 (configuration not stated) | 7.67 |
| CC1(C)C(=O)C(C#N)=C[C@]2(C)C3=CC(=O)C=C[C@]3(C)CC[C@@H]12 | 6.8 |
| C#CC1(C#C)C=CC(=O)C(C#N)=C1 | 6.74 |
| CC#C[C@]12C=C(C#N)C(=O)C=C1[C@@]1(C)C=C(C#N)C(=O)C(C)(C)[C@@H]1CC2 | 8.12 |
| CC1(C)C(=O)C(C#N)=C[C@]2(C)C3=CC(=O)C(C#N)=C[C@]3(C)CC[C@@H]12 | 7.74 |
| C#CC12C=C(C#N)C(=O)C=C1C(C)(C)CC2 (configuration not stated) | 7 |
| CC1(C)C=C(C#N)C(=O)C(C)(C)C1 | 5.72 |
| C=CC1(C)C=CC(=O)C(C#N)=C1 (configuration not stated) | 6.82 |
| CC[C@]12C=C(C#N)C(=O)C=C1[C@@]1(C)C=C(C#N)C(=O)C(C)(C)[C@@H]1CC2 | 7.74 |
